Experimental data: patent US9290536B2, “C4 monomethyl triterpenoid derivatives and methods of use thereof” (Reata Pharmaceuticals, Inc., priority 2011, dated 2016)

Test system: IFNγ-induced NO production in RAW264.7
Assay: Suppression of IFNγ-induced NO production in RAW264.7 mouse macrophages (Griess reagent, normalized to WST-1 cell viability)
Type: cell-based
Conditions: RAW264.7 cells, 2 h pre-treatment with drug (0-200 nM), then IFNγ for 24 h
Protocol: Nitric Oxide Production and Cell Viability. […] On the next day, cells were pre-treated with DMSO or drug (0-200 nM dose range) for 2 hours, and then treated with recombinant mouse IFNγ (R&D Systems) for 24 hours. Nitric Oxide concentration in media was determined using the Griess reagent system (Promega). Cell viability was determined using WST-1 reagent (Roche). IC50 values were determined based on the suppression of IFNγ induced Nitric Oxide production normalized to cell viability.

SMILES | IC50
COC(=O)[C@]12CCC(C)(C)C[C@H]1[C@H]1C(=O)C=C3[C@@]4(C)C=C(C(=O)O)C(=O)[C@@H](C)[C@@H]4CC[C@@]3(C)[C@]1(C)CC2 [TX63830] | 4.6 nM
COC(=O)[C@]12CCC(C)(C)C[C@H]1[C@H]1C(=O)C=C3[C@@]4(C)C=C(C(N)=O)C(=O)[C@@H](C)[C@@H]4CC[C@@]3(C)[C@]1(C)CC2 [TX63831] | 21 nM
COC(=O)[C@]12CCC(C)(C)C[C@H]1[C@H]1C(=O)C=C3[C@@]4(C)C=CC(=O)[C@@H](C)[C@@H]4CC[C@@]3(C)[C@]1(C)CC2 [TX63832] | 149 nM
COC(=O)[C@]12CCC(C)(C)C[C@H]1[C@H]1C(=O)C=C3[C@@]4(C)C=C(I)C(=O)[C@@H](C)[C@@H]4CC[C@@]3(C)[C@]1(C)CC2 [TX63833] | 88 nM
C[C@@H]1C(=O)C(C#N)=C[C@]2(C)[C@H]3CC(=O)[C@@H]4[C@@H]5CC(C)(C)CC[C@]5(CO)CC[C@@]4(C)[C@]3(C)CC[C@@H]12 [TX63839] | 4 nM
CC(=O)OC[C@]12CCC(C)(C)C[C@H]1[C@H]1C(=O)C[C@@H]3[C@@]4(C)C=C(C#N)C(=O)[C@@H](C)[C@@H]4CC[C@@]3(C)[C@]1(C)CC2 [TX63840] | 2.9 nM
C[C@@H]1C(=O)C(C#N)=C[C@]2(C)[C@H]3CC(=O)[C@@H]4[C@@H]5CC(C)(C)CC[C@]5(COC(=O)C(F)(F)F)CC[C@@]4(C)[C@]3(C)CC[C@@H]12 [TX63841] | 4.5 nM
CCOC(=O)[C@]12CCC(C)(C)C[C@H]1[C@H]1C(=O)C[C@@H]3[C@@]4(C)C=C(C#N)C(=O)[C@@H](C)[C@@H]4CC[C@@]3(C)[C@]1(C)CC2 [TX63842] | 6.1 nM
CCCCNC(=O)[C@]12CCC(C)(C)C[C@H]1[C@H]1C(=O)C[C@@H]3[C@@]4(C)C=C(C#N)C(=O)[C@@H](C)[C@@H]4CC[C@@]3(C)[C@]1(C)CC2 [TX63843] | 10.9 nM
COC[C@]12CCC(C)(C)C[C@H]1[C@H]1C(=O)C[C@@H]3[C@@]4(C)C=C(C#N)C(=O)[C@@H](C)[C@@H]4CC[C@@]3(C)[C@]1(C)CC2 [TX63858] | 7.2 nM
CSCOC[C@]12CCC(C)(C)C[C@H]1[C@H]1C(=O)C[C@@H]3[C@@]4(C)C=C(C#N)C(=O)[C@@H](C)[C@@H]4CC[C@@]3(C)[C@]1(C)CC2 [TX63859] | 14.6 nM
C[C@@H]1C(=O)C(C#N)=C[C@]2(C)[C@H]3CC(=O)[C@@H]4[C@@H]5CC(C)(C)CC[C@]5(COCF)CC[C@@]4(C)[C@]3(C)CC[C@@H]12 [TX63860] | 4.1 nM
C[C@@H]1C(=O)C(C#N)=C[C@]2(C)C3=CC(=O)[C@@H]4[C@@H]5CC(C)(C)CC[C@]5(NC(N)=O)CC[C@@]4(C)[C@]3(C)CC[C@@H]12 [TX63862] | 28 nM
C[C@@H]1C(=O)C(C#N)=C[C@]2(C)C3=CC(=O)[C@@H]4[C@@H]5CC(C)(C)CC[C@]5(NC(=O)C5CCC5)CC[C@@]4(C)[C@]3(C)CC[C@@H]12 [TX63863] | 1.8 nM
CCC(=O)N[C@]12CCC(C)(C)C[C@H]1[C@H]1C(=O)C=C3[C@@]4(C)C=C(C#N)C(=O)[C@@H](C)[C@@H]4CC[C@@]3(C)[C@]1(C)CC2 [TX63864] | 1.9 nM
CCCCCCC(=O)N[C@]12CCC(C)(C)C[C@H]1[C@H]1C(=O)C=C3[C@@]4(C)C=C(C#N)C(=O)[C@@H](C)[C@@H]4CC[C@@]3(C)[C@]1(C)CC2 [TX63865] | 9.4 nM
C[C@@H]1C(=O)C(C#N)=C[C@]2(C)C3=CC(=O)[C@@H]4[C@@H]5CC(C)(C)CC[C@]5(NC(=O)C5CC5)CC[C@@]4(C)[C@]3(C)CC[C@@H]12 [TX63866] | 1.4 nM
COC(=O)CC[C@]12CCC(C)(C)C[C@H]1[C@H]1C(=O)C=C3[C@@]4(C)C=C(C#N)C(=O)[C@@H](C)[C@@H]4CC[C@@]3(C)[C@]1(C)CC2 [TX63867] | 1.3 nM
C[C@@H]1C(=O)C(C#N)=C[C@]2(C)C3=CC(=O)[C@@H]4[C@@H]5CC(C)(C)CC[C@@H]5CC[C@@]4(C)[C@]3(C)CC[C@@H]12 [TX63869] | 3.8 nM
COC(=O)[C@]12CCC(C)(C)C[C@H]1[C@@]1(O)C(=O)C=C3[C@@]4(C)C=C(C#N)C(=O)[C@@H](C)[C@@H]4CC[C@@]3(C)[C@]1(C)CC2 [TX63870] | 1.1 nM
C[C@@H]1C(=O)C(C#N)=C[C@]2(C)C3=CC(=O)[C@@H]4[C@@H]5CC(C)(C)CC[C@]5(NC(=O)N(C)C)CC[C@@]4(C)[C@]3(C)CC[C@@H]12 [TX63875] | 1.3 nM
CNC(=O)N[C@]12CCC(C)(C)C[C@H]1[C@H]1C(=O)C=C3[C@@]4(C)C=C(C#N)C(=O)[C@@H](C)[C@@H]4CC[C@@]3(C)[C@]1(C)CC2 [TX63876] | 7.3 nM
CCCCNC(=O)[C@]12CCC(C)(C)C[C@H]1[C@H]1C(=O)C=C3[C@@]4(C)C=C(C#N)C(=O)[C@@H](C)[C@@H]4CC[C@@]3(C)[C@]1(C)CC2 [TX63877] | 1.3 nM

SMILES | IC50
C[C@@H]1C(=O)C(C#N)=C[C@]2(C)C3=CC(=O)[C@@H]4[C@@H]5CC(C)(C)CC[C@]5(C(=O)N(C)C)CC[C@@]4(C)[C@]3(C)CC[C@@H]12 [TX63878] | 1.4 nM
C[C@@H]1C(=O)C(C#N)=C[C@]2(C)C3=CC(=O)[C@@H]4[C@@H]5CC(C)(C)CC[C@]5(C(=O)N5CCCCC5)CC[C@@]4(C)[C@]3(C)CC[C@@H]12 [TX63880] | 1.6 nM
C[C@@H]1C(=O)C(C#N)=C[C@]2(C)C3=CC(=O)[C@@H]4[C@@H]5CC(C)(C)CC[C@]5(C(=O)N5CCOCC5)CC[C@@]4(C)[C@]3(C)CC[C@@H]12 [TX63881] | 0.9 nM
CONC(=O)[C@]12CCC(C)(C)C[C@H]1[C@H]1C(=O)C=C3[C@@]4(C)C=C(C#N)C(=O)[C@@H](C)[C@@H]4CC[C@@]3(C)[C@]1(C)CC2 [TX63882] | 1.6 nM
CNC(=O)CC[C@]12CCC(C)(C)C[C@H]1[C@H]1C(=O)C=C3[C@@]4(C)C=C(C#N)C(=O)[C@@H](C)[C@@H]4CC[C@@]3(C)[C@]1(C)CC2 [TX63886] | 0.3 nM
C[C@@H]1C(=O)C(C#N)=C[C@]2(C)C3=CC(=O)[C@@H]4[C@@H]5CC(C)(C)CC[C@]5(CCC(=O)NCC(F)(F)F)CC[C@@]4(C)[C@]3(C)CC[C@@H]12 [TX63887] | 0.8 nM
C[C@@H]1C(=O)C(C#N)=C[C@]2(C)C3=CC(=O)[C@@H]4[C@@H]5CC(C)(C)CC[C@]5(CCC(=O)N5CCOCC5)CC[C@@]4(C)[C@]3(C)CC[C@@H]12 [TX63888] | 0.3 nM
C[C@@H]1C(=O)C(C#N)=C[C@]2(C)C3=CC(=O)[C@@H]4[C@@H]5CC(C)(C)CC[C@]5(CCC(=O)N5CCC5)CC[C@@]4(C)[C@]3(C)CC[C@@H]12 [TX63889] | 0.4 nM
C[C@@H]1C(=O)C(C#N)=C[C@]2(C)C3=CC(=O)[C@@H]4[C@@H]5CC(C)(C)CC[C@]5(CCC(=O)N5CCC(F)(F)C5)CC[C@@]4(C)[C@]3(C)CC[C@@H]12 [TX63890] | 0.8 nM
C[C@@H]1C(=O)C(C#N)=C[C@]2(C)C3=CC(=O)[C@@H]4[C@@H]5CC(C)(C)CC[C@]5(CCC(=O)O)CC[C@@]4(C)[C@]3(C)CC[C@@H]12 [TX63891] | 1.3 nM
CCNC(=O)CC[C@]12CCC(C)(C)C[C@H]1[C@H]1C(=O)C=C3[C@@]4(C)C=C(C#N)C(=O)[C@@H](C)[C@@H]4CC[C@@]3(C)[C@]1(C)CC2 [TX63892] | 0.3 nM
C[C@@H]1C(=O)C(C#N)=C[C@]2(C)C3=CC(=O)[C@@H]4[C@@H]5CC(C)(C)CC[C@]5(CCC(=O)N5CCCC5)CC[C@@]4(C)[C@]3(C)CC[C@@H]12 [TX63893] | 0.5 nM
CCOC(=O)[C@]12CCC(C)(C)C[C@H]1[C@@]1(O)C(=O)C=C3[C@@]4(C)C=C(C#N)C(=O)[C@@H](C)[C@@H]4CC[C@@]3(C)[C@]1(C)CC2 [TX63901] | 1.3 nM
C[C@@H]1C(=O)C(C#N)=C[C@]2(C)C3=C[C@@H](O)[C@]4(O)[C@@H]5CC(C)(C)CC[C@]5(CO)CC[C@@]4(C)[C@]3(C)CC[C@@H]12 [TX63904] | 10.4 nM
C[C@@H]1C(=O)C(C#N)=C[C@]2(C)C3=CC(F)[C@]45OC(=O)[C@@]6(CCC(C)(C)C[C@H]64)CC[C@@]5(C)[C@]3(C)CC[C@@H]12 (stereo partly shown) [TX63907] | 1.6 nM
C[C@@H]1C(=O)C(C#N)=C[C@]2(C)C3=CC(=O)[C@]4(O)[C@@H]5CC(C)(C)CC[C@]5(CO)CC[C@@]4(C)[C@]3(C)CC[C@@H]12 [TX63908] | 0.6 nM
CC(=O)OC[C@]12CCC(C)(C)C[C@H]1[C@@]1(O)C(=O)C=C3[C@@]4(C)C=C(C#N)C(=O)[C@@H](C)[C@@H]4CC[C@@]3(C)[C@]1(C)CC2 [TX63909] | 1.4 nM
C=C1C(O)=C(C#N)C[C@]2(C)C3=CC(=O)[C@@H]4[C@@H]5CC(C)(C)CC[C@]5(C(=O)OC)CC[C@@]4(C)[C@]3(C)CC[C@@H]12 [TX63910] | 304 nM
C=C1C(=O)C(C#N)=C[C@]2(C)C3=CC(=O)[C@@H]4[C@@H]5CC(C)(C)CC[C@]5(C(=O)OC)CC[C@@]4(C)[C@]3(C)CC[C@@H]12 [TX63911] | 10 nM
C[C@@H]1C(=O)C(C#N)=C[C@]2(C)C3=CC(=O)[C@@H]4[C@@H]5CC(C)(C)CC[C@]5(CCC(=O)NC5COC5)CC[C@@]4(C)[C@]3(C)CC[C@@H]12 [TX63914] | 0.4 nM
CC(=O)NNC(=O)CC[C@]12CCC(C)(C)C[C@H]1[C@H]1C(=O)C=C3[C@@]4(C)C=C(C#N)C(=O)[C@@H](C)[C@@H]4CC[C@@]3(C)[C@]1(C)CC2 [TX63915] | 4 nM
Cc1nnc(CC[C@]23CCC(C)(C)C[C@H]2[C@H]2C(=O)C=C4[C@@]5(C)C=C(C#N)C(=O)[C@@H](C)[C@@H]5CC[C@@]4(C)[C@]2(C)CC3)o1 [TX63916] | 0.4 nM
C[C@@H]1C(=O)C(C#N)=C[C@]2(C)C3=CC(=O)[C@@H]4[C@@H]5CC(C)(C)CC[C@]5(CCCO)CC[C@@]4(C)[C@]3(C)CC[C@@H]12 [TX63918] | 0.5 nM
